Experimental data from BigSolDB 2.1.

Cl.N=C(N)N
solubility (mole fraction)
Conditions	278.15 K	283.15 K	288.15 K	293.15 K	298.15 K	303.15 K	308.15 K	313.15 K	318.15 K	323.15 K
in 2-butoxyethanol	0.104	0.111	0.126	0.138	0.153	0.169	0.185	0.201	0.216	0.236
in 2-ethoxyethanol	0.252	0.263	0.275	0.284	0.296	0.308	0.321	0.334	0.349	0.362
in 2-methoxyethanol	0.293	0.302	0.312	0.323	0.333	0.345	0.355	0.368	0.381	0.394
in 2-propoxyethanol	0.158	0.172	0.185	0.2	0.216	0.232	0.247	0.263	0.28	0.298
in DMAc	0.265	0.283	0.302	0.321	0.34	0.358	0.376	0.394	0.415	0.434
in DMF	0.326	0.345	0.368	0.384	0.402	0.42	0.441	0.456	0.476	0.495
in NMP	0.116	0.128	0.142	0.154	0.17	0.185	0.201	0.216	0.236	0.253
in ethanol	0.0832	0.0916	0.1	0.108	0.117	0.128	0.139	0.152	0.163	0.172
in isopropanol	0.0552	0.0623	0.0699	0.0803	0.0886	0.0991	0.11	0.122	0.135	0.149
in methanol	0.156	0.169	0.179	0.191	0.202	0.214	0.227	0.239	0.253	0.265
in n-propanol	0.0373	0.0447	0.0493	0.0571	0.066	0.0733	0.083	0.0939	0.103	0.115
